Results: BindingDB's records for doi:10.1002/cbic.200800704 (Antibiotics Laboratory, 2009)

Biological target: Carbonic anhydrase 2 (Homo sapiens, UniProt P00918)
Assay: Inhibition Assay
Settings: pH 8.4
Method: Inhibitory activity of the compounds for CAII was measured and IC50 values were calculated from independent triplicated experiments. Kd values were obtained by ITC analysis.

SMILES	IC50	Kd
NS(=O)(=O)c1ccc(N2CCNCC2)cc1 [Piperazine moiety, 4]	299 nM	426 nM
NS(=O)(=O)c1ccc(N2CCN(C(=O)c3ccncc3)CC2)cc1 [Piperazine moiety, 6]	72 nM	100 nM
NS(=O)(=O)c1ccc(F)cc1 [4-Fuloro sulfonamide, C]	203 nM	435 nM

Further lines, results first:

IC50	Kd	SMILES
137 nM	208 nM	NS(=O)(=O)c1ccc(N2CCN(CCO)CC2)cc1 [Piperazine moiety, 5]
48 nM	29 nM	NS(=O)(=O)c1ccc(N2CCN(Cc3ccncc3)CC2)cc1 [Piperazine moiety, 3]
